This note sets out measurements from patent US20210290597A1, “METHOD OF TREATING A CONDITION ASSOCIATED WITH NEURODEGENERATION USING INHIBITORS OF OAT3” (Neuropore Therapies, Inc., priority 2018, published 2021).

Common to all, as to format: cell-based
The target in test [1] is T1, human transporter OATP1B1 (Homo sapiens, UniProt Q9Y6L6).
T1 construct: expressed in transfected cells; host or cells: MDCK-II
T1 sequence (Q9Y6L6 1-691): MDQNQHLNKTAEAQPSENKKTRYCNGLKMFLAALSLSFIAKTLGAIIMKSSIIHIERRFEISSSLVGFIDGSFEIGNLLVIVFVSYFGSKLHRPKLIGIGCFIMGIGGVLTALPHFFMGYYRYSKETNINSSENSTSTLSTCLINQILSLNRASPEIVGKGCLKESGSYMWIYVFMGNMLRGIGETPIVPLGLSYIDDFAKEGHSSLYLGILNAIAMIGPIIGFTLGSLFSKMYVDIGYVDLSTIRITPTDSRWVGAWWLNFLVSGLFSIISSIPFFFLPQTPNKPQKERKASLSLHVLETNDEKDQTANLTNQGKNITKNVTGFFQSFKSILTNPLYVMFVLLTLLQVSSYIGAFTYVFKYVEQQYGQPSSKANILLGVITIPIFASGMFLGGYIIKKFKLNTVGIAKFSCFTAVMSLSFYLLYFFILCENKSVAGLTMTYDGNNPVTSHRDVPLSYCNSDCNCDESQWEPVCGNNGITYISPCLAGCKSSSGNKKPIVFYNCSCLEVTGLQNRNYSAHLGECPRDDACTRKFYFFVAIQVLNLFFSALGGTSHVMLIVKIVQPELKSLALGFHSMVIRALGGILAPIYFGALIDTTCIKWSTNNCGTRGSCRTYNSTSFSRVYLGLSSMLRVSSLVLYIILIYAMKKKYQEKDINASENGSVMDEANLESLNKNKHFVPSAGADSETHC
Description: In vitro ion transport assay 1, OATP1B1. Particulars: probe substrate 2 μM [3H]-estradiol-17β-D-glucuronide. Here is the method: (§1) Compound 1 was studied in the concentration range of 0.1-100 μM for its potency against transport mediated by various transporter proteins. [table]

In the next test the target is T2, human transporter MATE1 (Homo sapiens, UniProt Q96FL8).
T2 construct: expressed in transfected cells; host or cells: MDCK-II
T2 sequence (Q96FL8 1-570): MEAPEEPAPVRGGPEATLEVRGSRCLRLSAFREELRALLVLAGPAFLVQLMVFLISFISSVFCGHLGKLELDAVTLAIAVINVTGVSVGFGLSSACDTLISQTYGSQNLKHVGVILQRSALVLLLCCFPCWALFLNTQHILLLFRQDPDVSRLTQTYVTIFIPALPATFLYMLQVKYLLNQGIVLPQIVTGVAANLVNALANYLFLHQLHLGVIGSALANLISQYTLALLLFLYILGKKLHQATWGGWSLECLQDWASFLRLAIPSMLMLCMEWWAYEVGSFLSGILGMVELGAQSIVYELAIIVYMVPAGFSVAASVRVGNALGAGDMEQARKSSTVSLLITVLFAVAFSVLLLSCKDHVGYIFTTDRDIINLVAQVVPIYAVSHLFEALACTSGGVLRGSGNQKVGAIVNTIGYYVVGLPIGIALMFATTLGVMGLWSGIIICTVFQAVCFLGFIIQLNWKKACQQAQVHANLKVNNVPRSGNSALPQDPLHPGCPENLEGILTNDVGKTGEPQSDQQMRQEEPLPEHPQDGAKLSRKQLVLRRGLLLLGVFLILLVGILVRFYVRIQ
The test can be described thus: In vitro ion transport assay 1, MATE1. Particulars: probe substrate 10 μM [14C]-metformin. Here is the method:
as §1

The target in test [2] is T3, human transporter MATE2-K (Homo sapiens, UniProt Q86VL8).
T3 construct: expressed in transfected cells; host or cells: MDCK-II
The test can be described thus: In vitro ion transport assay 1, MATE2-K. The following applies: probe substrate 10 μM [14C]-metformin. Here is the method: as §1

For another test, the target named is T4, human transporter BCRP (Homo sapiens, UniProt Q9UNQ0).
T4 construct: expressed in transfected cells; host or cells: MDCK-II
T4 sequence (Q9UNQ0 1-655): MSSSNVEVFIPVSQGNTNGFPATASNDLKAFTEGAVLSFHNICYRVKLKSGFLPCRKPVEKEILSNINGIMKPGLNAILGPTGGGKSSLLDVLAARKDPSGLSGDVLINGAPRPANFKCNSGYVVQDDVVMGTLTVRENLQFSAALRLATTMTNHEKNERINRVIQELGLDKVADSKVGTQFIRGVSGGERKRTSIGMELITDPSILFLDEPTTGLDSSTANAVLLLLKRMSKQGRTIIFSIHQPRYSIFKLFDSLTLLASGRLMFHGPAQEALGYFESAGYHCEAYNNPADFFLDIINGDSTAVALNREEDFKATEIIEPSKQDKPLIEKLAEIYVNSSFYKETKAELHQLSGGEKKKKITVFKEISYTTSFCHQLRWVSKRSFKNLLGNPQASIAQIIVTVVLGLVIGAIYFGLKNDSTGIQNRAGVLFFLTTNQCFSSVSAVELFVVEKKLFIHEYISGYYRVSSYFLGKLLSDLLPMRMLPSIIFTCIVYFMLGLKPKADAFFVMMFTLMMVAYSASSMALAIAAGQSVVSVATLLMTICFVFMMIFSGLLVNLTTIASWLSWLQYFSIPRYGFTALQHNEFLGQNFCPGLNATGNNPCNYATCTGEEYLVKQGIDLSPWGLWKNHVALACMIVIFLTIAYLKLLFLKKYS
Description: In vitro ion transport assay 1, BCRP. The following applies: probe substrate 2 μM [3H]-prazosin. Here is the method: as §1

T3 sequence (Q86VL8 1-566 isoform Q86VL8-3): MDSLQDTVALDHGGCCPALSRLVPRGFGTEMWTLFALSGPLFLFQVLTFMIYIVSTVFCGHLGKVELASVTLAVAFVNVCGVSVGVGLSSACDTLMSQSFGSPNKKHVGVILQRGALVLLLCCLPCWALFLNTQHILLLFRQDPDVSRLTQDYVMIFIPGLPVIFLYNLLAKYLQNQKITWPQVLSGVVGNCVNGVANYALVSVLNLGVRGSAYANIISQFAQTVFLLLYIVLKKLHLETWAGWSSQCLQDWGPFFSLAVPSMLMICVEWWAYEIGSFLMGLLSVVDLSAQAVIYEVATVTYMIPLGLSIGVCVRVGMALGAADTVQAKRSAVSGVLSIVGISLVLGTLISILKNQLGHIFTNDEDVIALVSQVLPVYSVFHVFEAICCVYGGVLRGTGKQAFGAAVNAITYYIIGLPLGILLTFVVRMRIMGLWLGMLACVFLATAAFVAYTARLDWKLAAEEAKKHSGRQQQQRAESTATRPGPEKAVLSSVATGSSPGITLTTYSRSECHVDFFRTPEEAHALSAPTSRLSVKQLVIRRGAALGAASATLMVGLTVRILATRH

Regarding `O=S(=O)(c1ccc(-n2cn[nH]c2=S)cc1)c1ccc(Cl)c(C(F)(F)F)c1` [Compound 1, 4-(4-((4-chloro-3-(trifluoromethyl)phenyl)sulfonyl)phenyl)-2,4-dihydro-3H-1,2,4-triazole-3-thione], the IC50 came to 14.6 µM in test [1], 30.3 µM at human transporter MATE1, 75.8 µM in test [2] and 51.5 µM against human transporter BCRP.
